{"source": "patent US20100256214A1", "about": "“EPH RECEPTOR LIGANDS AND METHODS OF USE” (Burnham Institute for Medical Research, priority 2009, published 2010)", "key": {"EphA4": {"target": "EphA4 (Homo sapiens, UniProt P54764)", "sequence (P54764 20-547 limits assumed, species assumed)": "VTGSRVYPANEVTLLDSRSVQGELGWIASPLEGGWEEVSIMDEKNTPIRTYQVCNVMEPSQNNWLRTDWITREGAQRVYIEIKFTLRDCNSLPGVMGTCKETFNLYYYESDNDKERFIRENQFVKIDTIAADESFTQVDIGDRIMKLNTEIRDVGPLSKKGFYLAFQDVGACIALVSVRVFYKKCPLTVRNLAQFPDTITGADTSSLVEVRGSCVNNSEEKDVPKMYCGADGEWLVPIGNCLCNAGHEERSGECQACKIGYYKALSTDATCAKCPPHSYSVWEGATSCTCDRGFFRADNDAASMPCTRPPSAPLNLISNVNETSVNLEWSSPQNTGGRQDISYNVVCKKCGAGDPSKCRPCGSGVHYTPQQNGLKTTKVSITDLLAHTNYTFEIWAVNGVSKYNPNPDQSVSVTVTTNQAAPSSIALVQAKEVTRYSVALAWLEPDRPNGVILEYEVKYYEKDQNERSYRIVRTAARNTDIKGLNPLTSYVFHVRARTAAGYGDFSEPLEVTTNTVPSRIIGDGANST", "experiment": "ELISA, ephrin-A5 AP binding to immobilized EphA4 Fc", "details": "for IC50: read-out: IC50 for inhibition of ephrin-A5 AP binding to EphA4", "procedure": "(§1) ELISA Assays and K, Determination—Protein A-coated wells (Pierce Biotecnology, Rockford, Ill.) were used to immobilize ephrin Fc fusion proteins (R&D Systems, Minneapolis, Minn.). Compounds at different concentrations were incubated with EphA4 AP (Cheng and Flanagan, (1994) Cell 79(1), 157-168) or EphA2 AP (Koolpe et al. (2002) J Biol Chem 277(49), 46974-46979) for 3 hours. Alternatively, Eph receptor Fc fusion proteins were immobilized on protein A-coated wells and ephrin-A5 AP (Menzel et al. (2001) Developmental Biology 230(1), 74-88) or ephrin-B2 AP (GeneHunter, Nashville, Tenn.) were added with the compounds. The amount of bound AP-fusion protein was quantified using pNPP as the substrate. Alkaline phosphatase activity from wells with Fc only was subtracted as background. To confirm that the binding of the compounds to EphA4 was reversible, the compounds were removed and the wells were incubated in binding buffer for 3 hours before washing and incubating with ephrin AP fusion proteins. Under these conditions, no inhibition of ephrin binding was observed indicating the reversible binding of the compounds.\nTo calculate the inhibition constant (KO values, the binding of ephrin-A5 AP to EphA4 Fc immobilized on protein A-coated wells was measured in the absence and in the presence of the compounds at different concentrations. Each data set was fitted to the Michaelis-Menten equation: B=Bmax [S]/(KD+[S]), where [S] is the concentration of ephrin AP fusion protein and KD is the dissociation constant observed in the absence or in the presence of the compound, using non linear regression and the program GraphPad (Prism). To evaluate whether the inhibition is competitive, noncompetitive or uncompetitive the KD and Bmax values were determined at different compound concentrations. The Ki was obtained from the linear regression plot of KD/Bmax as a function of the concentration of the inhibitor according to: KD/Bmax=(KD[S])/(Ki·Bmax)+KD/Bmax. Alternatively, Ki values were obtained from the dose response curves, using the Cheng-Prusoff equation: Ki=IC50/(1+[S]/KD) (XX38, Cheng, Y., and Prusoff, W. H. (1973) Biochemical pharmacology 22(23), 3099-3108). Ephrin-A5 AP concentration were calculated from alkaline phosphatase activity (Flanagan et al. (2000) Methods in Enzymology. 327, 19-35)."}, "EphA and EphB receptors": {"tested_on": "EphA and EphB receptors", "experiment": "ELISA, ephrin-A5 AP / ephrin-B2 AP binding to immobilized EphA and EphB receptor Fc fusion proteins", "procedure": "FIGS. 3A and 3B. A. Ephrin-A5 AP binding to immobilized EphA receptor Fc fusion proteins and ephrin-B2 AP binding to immobilized EphB receptor Fc fusion proteins were measured in the presence of the indicated concentrations of compounds 1 and 2. […] Error bars indicate standard error from 3 measurements. B. IC50 values for inhibition of EphA4 AP and EphA2 AP binding to the indicated immobilized ephrins by compounds 1 and 2.\nas §1, with “To confirm that the binding of the compounds to EphA4 was reversible, the compounds were removed and the wells were incubated in binding buffer for 3 hours before washing and incubating with ephrin AP fusion proteins. Under these conditions, no inhibition of ephrin binding was observed indicating the reversible binding of the compounds.” left out"}, "PC3 cells": {"tested_on": "PC3 cells", "experiment": "PC3 cell retraction assay", "format": "cell-based", "procedure": "FIGS. 9A-9G. A. PC3 cells pretreated for 15 min with the indicated concentrations of compound 1 or compound 2 were stimulated with 0.5 μg/mL ephrin-A1 Fc (+) or Fc as a control (−) for 20 min in the continued presence of the compounds. EphA2 immunoprecipitates were probed with anti-phosphotyrosine antibody (PTyr) and reprobed for EphA2. C indicates immunoprecipitations performed with control antibodies. B. Histogram showing the levels of EphA2 phosphorylation normalized to the amount of immunoprecipitated EphA2. Error bars indicate standard error from 3 experiments. Receptor phosphorylation levels were compared with those in the ephrin-stimulated cells by one-way ANOVA and Dunnett's post test. *P<0.05 and *P<0.01. C. PC3 cells stimulated with compound 1 as in (A) were stained with rhodamine-phalloidin to label actin filaments and DAPI to label nuclei. DMSO was used as a control (0 μM). D. Histogram showing the mean area of the cells normalized to the value obtained for the Fc stimulated cells. E. Histogram showing the mean percentage of retracting cells. Cells having rounded shape and area less than 20% of the mean value obtained for the Fc stimulated cells were scored as retracting. Error bars in D and E indicate standard error from 3 experiments. F-H. The same experiments as in (C-E) were performed using compound 2. The areas occupied by the cells and the percentage of cell retraction under different conditions were compared to those in the Fc control condition by one-way ANOVA and Dunnett's post test. *P<0.05 and **P<0.01. Scale bars in (C) and (F)=50 μm.\nPC3 Cell Retraction Assay—PC3 cells were plated on glass coverslips and grown in RPMI 1640 medium (Mediatech, Inc, Herndon, Va.) with 10% FBS and Pen/Strep. After 17 hours the cells were starved for 3 hours in 0.5% FBS in DMEM and then incubated for 40 min with the compounds or DMSO, before stimulation for 10 min with 0.5 μg/mL of ephrin-A1 Fc or Fc as a control. The cells were fixed in 4% formaldehyde in PBS, permeabilized in 0.5% Triton X-100 in TBS and stained with rhodamine-conjugated phalloidin (Invitrogen, Carlsbad, Calif.) and DAPI. Cells were photographed under a fluorescence microscope and cell area was measured in a blinded manner using ImageJ software. Cells having rounded shape and area equal or below 20% of the area of Fc control-treated cells were considered as retracting."}, "[1]": {"details": "from ephrin-A5 AP binding curves at different compound concentrations, read-out: Ki, competitive inhibition of EphA4-ephrin-A5 binding"}, "[2]": {"details": "from other inhibition curves using different ephrin concentrations, read-out: Ki calculated with the Cheng-Prusoff equation, EphA4-ephrin-A5"}, "[3]": {"details": "from the inhibition curves shown in FIG. 2, read-out: Ki calculated with the Cheng-Prusoff equation, EphA4-ephrin-A5"}}, "note": "Where two headings read alike, the source gives them in different places.", "data": [{"smiles": "Cc1ccc(C)n1-c1ccc(C(=O)O)c(O)c1", "note": "[compound 1, 4-(2,5-dimethyl-pyrrol-1-yl)-2-hydroxy-benzoic acid]", "values": [{"measurement": "inhibition of EphA4-ephrin-A5 binding (in words)", "setting": "EphA4", "result": "inhibit"}, {"measurement": "reversibility of binding to EphA4", "setting": "EphA4; compounds removed, 3 hours in binding buffer before ephrin AP", "result": "binds reversibly"}, {"measurement": "Ki", "setting": "EphA4; [1]", "result": 8, "unit": "µM"}, {"measurement": "Ki", "setting": "EphA4; [2]", "result": "6 to 10", "unit": "µM"}, {"measurement": "Ki", "setting": "EphA4; [3]", "result": 10, "unit": "µM"}, {"measurement": "IC50", "setting": "EphA4", "result": 13, "unit": "µM"}, {"measurement": "selectivity of inhibition of ephrin binding among EphA and EphB receptors", "setting": "EphA and EphB receptors", "result": "efficiently inhibited ephrin binding only to EphA4 and EphA2"}, {"measurement": "cell morphology in the absence of ephrin treatment", "setting": "PC3 cells", "result": "did not affect"}, {"measurement": "decrease in cell spreading caused by ephrin-A1 Fc", "setting": "PC3 cells", "result": "blocked"}, {"measurement": "increase in the percentage of rounded cells caused by ephrin-A1 Fc", "setting": "PC3 cells", "result": "blocked"}]}, {"smiles": "Cc1ccc(C)n1-c1ccc(O)c(C(=O)O)c1", "note": "[compound 2, 5-(2,5 dimethyl-pyrrol-1-yl)-2-hydroxy-benzoic acid]", "values": [{"measurement": "inhibition of EphA4-ephrin-A5 binding (in words)", "setting": "EphA4", "result": "inhibit"}, {"measurement": "Ki", "setting": "EphA4; [1]", "result": 7, "unit": "µM"}, {"measurement": "Ki", "setting": "EphA4; [2]", "result": "6 to 8", "unit": "µM"}, {"measurement": "Ki", "setting": "EphA4; [3]", "result": 6, "unit": "µM"}, {"measurement": "IC50", "setting": "EphA4", "result": 9, "unit": "µM"}, {"measurement": "selectivity of inhibition of ephrin binding among EphA and EphB receptors", "setting": "EphA and EphB receptors", "result": "efficiently inhibited ephrin binding only to EphA4 and EphA2"}, {"measurement": "cell morphology in the absence of ephrin treatment", "setting": "PC3 cells", "result": "did not affect"}, {"measurement": "decrease in cell spreading caused by ephrin-A1 Fc", "setting": "PC3 cells", "result": "blocked"}, {"measurement": "increase in the percentage of rounded cells caused by ephrin-A1 Fc", "setting": "PC3 cells", "result": "blocked"}]}]}
